Test results reported in patent US10047081B2, “BACE1 inhibitors” (Hoffmann-La Roche Inc., priority 2015, dated 2018).

Experiments:
[1] = molecular target: T1, CYP3A4 (Homo sapiens, UniProt P08684); experiment: CYP inhibition assay, human liver microsomes; assay type: in vitro ADME; details: human liver microsomes, substrate midazolam; read-out: CYP IC50 3A4
T1 construct: 0.2 mg/ml pooled human liver microsomes; from tissue; host or cells: pooled human liver microsomes
Experimental: (§1) Inhibition of cytochromes P450 (CYPs) 2C9, 2D6 and 3A4 was assessed using human liver microsomes and CYP-selective substrate metabolism reactions. 50 μl incubations were made up containing (finally) 0.2 mg/ml pooled human liver microsomes, 5 μM substrate (diclofenac for CYP2C9 [4′hydroxylase], dextromethorphan for CYP2D6 [O-demethylase] or midazolam for CYP3A4 [1′hydroxylase]), 0.25 μL DMSO containing test inhibitor and NADPH regenerating system. Test inhibitor concentrations of 50, 16.7, 5.6, 1.9, 0.6 and 0.2 μM were assessed in singlicate. Incubations were prewarmed to 37° C. for 10 minutes before initiation by addition of NADPH regenerating system. Incubations were quenched after 5 minutes (20 minutes for dextromethorphan) by addition of 50 μl cold acetonitrile containing 20 ng/ml 4-OH-diclofenac-13C6, 20 ng/mL dextrorphan-D3 and 20 ng/mL 1-OH-midazolam-D4. Quenched incubates were stored at −20° C. for at least 1 hour before centrifugation (20,000× g, 20 minutes). Supernatants were removed and diluted 1:1 with water prior to analysis using a RapidFire sample injector system and API4000 mass spectrometer. Peak areas for substrate, metabolite and stable-labelled metabolite standard were determined using MS/MS. The peak area ratios between the metabolite generated by the enzymatic reaction and the internal standard were used in subsequent calculations. The percentage of (DMSO) control activity was calculated for each incubate and IC50 values estimated by non-linear regression. Sulfaphenazole, quinidine or ketoconazole were tested in each CYP2C9, CYP2D6 or CYP3A4 inhibition experiment, respectively, to ensure assay sensitivity and reproducibility. (Validated assays for human cytochrome P450 activities, R. L. Walsky and R. S. Obach, Drug Metabolism and Disposition 32: 647-660, 2004. and S. Fowler and H. Zhang, The AAPS Journal, Vol. 10, No. 2, 410-424, 2008)

[2] = molecular target: T2, CYP2C9 (Homo sapiens, UniProt P11712); experiment: CYP inhibition assay, human liver microsomes; assay type: in vitro ADME; details: human liver microsomes, substrate diclofenac; read-out: CYP IC50 2C9
T2 construct: 0.2 mg/ml pooled human liver microsomes; from tissue; host or cells: pooled human liver microsomes
Experimental: as §1

[3] = molecular target: T3, recombinant human cathepsin E (Homo sapiens, UniProt P14091); experiment: Cathepsin E fluorescent substrate kinetic assay; assay type: biochemical; details: pH 4.5, substrate MR121-CKLVFFAEDW
T3 construct: purchased R&D Systems
T3 sequence (P14091 54-396): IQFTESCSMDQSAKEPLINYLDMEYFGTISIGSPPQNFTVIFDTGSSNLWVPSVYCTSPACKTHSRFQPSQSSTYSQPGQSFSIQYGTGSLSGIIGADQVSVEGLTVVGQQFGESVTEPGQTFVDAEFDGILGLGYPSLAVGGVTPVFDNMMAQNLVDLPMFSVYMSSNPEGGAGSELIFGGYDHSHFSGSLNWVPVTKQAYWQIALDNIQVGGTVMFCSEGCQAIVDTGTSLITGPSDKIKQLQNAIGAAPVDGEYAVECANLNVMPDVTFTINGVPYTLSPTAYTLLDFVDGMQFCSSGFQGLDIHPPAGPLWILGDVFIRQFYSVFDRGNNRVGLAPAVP
Source text: (§2) Cathepsin D and Cathepsin E Fluorescent Substrate Kinetic Assays
(§3) The MR121 fluorescence assays described below are based on the fact that MR121 forms a non-fluorescent ground state complex with tryptophan. In solution this formation occurs at millimolar concentrations of tryptophan. The mechanism can be used to design a generic biochemical assay for proteases. A substrate peptide is labeled at the N-terminus with tryptophan and at the C-terminus with the fluorophore MR121 (for cathepsin D the 10 amino acid peptide WTSVLMAAPC-MR121 was used; for cathepsin E, MR121-CKLVFFAEDW was used). In absence of protease activity, the substrates remain intact and the MR121 fluorescence is reduced by the high local Trp-concentration. If the substrates are cleaved by the enzymes the MR121 fluorescence is recovered.
(§4) The fluorescent substrate cathepsin D and cathepsin E kinetic assays were performed at room temperature in 384-well microtiter plates (black with clear flat bottom, non-binding surface plates from Corning) in a final volume of 51 μl. The test compounds were serially diluted in DMSO (15 concentrations, ⅓ dilution steps) and 1 μl of diluted compounds were mixed for 10 min with 40 μl of cathepsin D (from human liver, Calbiochem) diluted in assay buffer (100 mM sodium acetate, 0.05% BSA, pH 5.5; final concentration:200 nM) or with 40 μl of recombinant human cathepsin E (R&D Systems) diluted in assay buffer (100 mM sodium acetate, 0.05% BSA, pH 4.5; final concentration:0.01 nM). After addition of 10 μl of the cathepsin D substrate WTSVLMAAPC-MR121 diluted in cathepsin D assay buffer (final concentration:300 nM) or 10 μl of the cathepsin E substrate MR121-CKLVFFAEDW diluted in cathepsin E assay buffer (final concentration:300 nM), the plates were strongly shaken for 2 minutes. The enzymatic reaction was followed in a plate: vision reader (Perkin Elmer) (excitation wavelength:630 nm; emission:695 nm) for at least 30 minutes in a kinetic measurement detecting an increase of MR121 fluorescence during the reaction time. The slope in the linear range of the kinetic was calculated and the IC50 of the test compounds were determined using a four parameter equation for curve fitting.

[4] = molecular target: T4, cathepsin D (from human liver) (Homo sapiens, UniProt P07339); experiment: Cathepsin D fluorescent substrate kinetic assay; assay type: biochemical; details: pH 5.5, substrate WTSVLMAAPC-MR121
T4 construct: cathepsin D (from human liver, Calbiochem) diluted in assay buffer; purchased Calbiochem; host or cells: human liver
Source text: as §2, §3, §4

[5] = molecular target: T5, CYP2D6 (Homo sapiens, UniProt P10635); experiment: CYP inhibition assay, human liver microsomes; assay type: in vitro ADME; details: human liver microsomes, substrate dextromethorphan; read-out: CYP IC50 2D6
T5 construct: 0.2 mg/ml pooled human liver microsomes; from tissue; host or cells: pooled human liver microsomes
Experimental: as §1

T4 sequence (P07339 65-162 limits assumed): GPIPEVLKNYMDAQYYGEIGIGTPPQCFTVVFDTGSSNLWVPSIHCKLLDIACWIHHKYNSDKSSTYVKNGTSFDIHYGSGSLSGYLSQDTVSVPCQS
T4 sequence (P07339 169-412 limits assumed): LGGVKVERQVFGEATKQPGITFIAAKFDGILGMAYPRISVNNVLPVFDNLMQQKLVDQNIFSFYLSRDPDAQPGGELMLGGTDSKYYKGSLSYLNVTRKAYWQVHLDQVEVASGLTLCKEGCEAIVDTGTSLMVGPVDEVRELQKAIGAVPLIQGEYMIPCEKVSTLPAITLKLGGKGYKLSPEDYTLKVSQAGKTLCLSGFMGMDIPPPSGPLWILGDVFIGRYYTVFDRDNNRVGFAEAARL
T5 sequence (P10635 whole entry): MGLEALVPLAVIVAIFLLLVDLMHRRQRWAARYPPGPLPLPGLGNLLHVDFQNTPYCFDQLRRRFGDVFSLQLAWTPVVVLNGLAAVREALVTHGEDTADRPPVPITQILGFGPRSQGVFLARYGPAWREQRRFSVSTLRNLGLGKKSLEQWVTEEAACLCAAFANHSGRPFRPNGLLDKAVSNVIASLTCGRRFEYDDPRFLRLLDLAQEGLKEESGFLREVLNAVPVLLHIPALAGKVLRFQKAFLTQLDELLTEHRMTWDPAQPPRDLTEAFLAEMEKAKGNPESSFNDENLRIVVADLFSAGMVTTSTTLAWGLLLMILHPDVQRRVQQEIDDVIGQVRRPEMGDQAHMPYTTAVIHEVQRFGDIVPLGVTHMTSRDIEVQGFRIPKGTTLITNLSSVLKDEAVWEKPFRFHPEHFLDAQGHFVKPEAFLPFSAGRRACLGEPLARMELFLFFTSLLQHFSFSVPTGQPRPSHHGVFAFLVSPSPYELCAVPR
T1 sequence (P08684 whole entry): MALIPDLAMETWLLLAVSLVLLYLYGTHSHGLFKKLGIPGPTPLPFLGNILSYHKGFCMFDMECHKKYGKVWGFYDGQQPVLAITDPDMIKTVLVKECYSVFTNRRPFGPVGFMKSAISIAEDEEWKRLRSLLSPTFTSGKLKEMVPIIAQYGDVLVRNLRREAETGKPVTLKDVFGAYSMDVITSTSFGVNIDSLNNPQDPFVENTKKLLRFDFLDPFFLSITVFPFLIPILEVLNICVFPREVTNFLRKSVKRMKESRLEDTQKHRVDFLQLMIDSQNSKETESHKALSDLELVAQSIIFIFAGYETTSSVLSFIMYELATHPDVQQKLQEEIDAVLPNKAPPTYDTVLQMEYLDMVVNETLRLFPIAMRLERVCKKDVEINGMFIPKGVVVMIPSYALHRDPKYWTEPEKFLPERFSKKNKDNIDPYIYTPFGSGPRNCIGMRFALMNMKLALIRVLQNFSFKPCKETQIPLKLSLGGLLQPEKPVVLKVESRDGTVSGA
T2 sequence (P11712 whole entry): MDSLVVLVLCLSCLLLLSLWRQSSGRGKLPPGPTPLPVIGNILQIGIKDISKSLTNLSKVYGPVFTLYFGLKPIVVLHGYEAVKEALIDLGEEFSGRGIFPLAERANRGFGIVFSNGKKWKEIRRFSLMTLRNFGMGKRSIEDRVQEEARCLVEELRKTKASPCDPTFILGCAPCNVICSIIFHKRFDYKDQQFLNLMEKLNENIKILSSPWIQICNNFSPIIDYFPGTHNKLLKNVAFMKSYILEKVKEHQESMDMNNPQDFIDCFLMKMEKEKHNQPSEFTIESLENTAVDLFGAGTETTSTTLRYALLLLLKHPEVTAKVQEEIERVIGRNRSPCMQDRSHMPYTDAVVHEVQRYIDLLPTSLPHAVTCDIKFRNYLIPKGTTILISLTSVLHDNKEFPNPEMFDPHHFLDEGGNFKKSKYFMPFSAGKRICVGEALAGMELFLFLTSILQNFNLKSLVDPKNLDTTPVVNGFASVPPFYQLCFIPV

SMILES | IC50 [1] [µM] | IC50 [2] [µM] | IC50 [3] [µM] | IC50 [4] [µM] | IC50 [5] [µM]
CN=[S@@]1(=O)C[C@@](C)(c2cc(-c3cc(-c4cnc(OCC(F)F)cn4)no3)ccc2F)N=C(N)C1(C)C [Example 5, (1R,3R)-5-amino-3-(5-(3-(5-(2,2-difluoroethoxy)pyrazin-2-yl)isoxazol-5-yl)-2-fluorophenyl)-3,6,6-trimethyl-1-(methylimino)-3,6-dihydro-2H-1,4-thiazine 1-oxide 2,2,2-trifluoroacetate] | > 10 | > 10 | 78 | 29 | –
[2H]C([2H])([2H])N=[S@@]1(=O)C[C@@](C)(c2cc(-c3cc(-c4cnc(OC)cn4)no3)ccc2F)N=C(N)C1(C)C [Example 24, (1R,3R)-3-[2-fluoro-5-[3-(5-methoxypyrazin-2-yl)isoxazol-5-yl]phenyl]-3,6,6-rimethyl-1-oxo-1-(trideuteriomethylimino)-2H-1,4-thiazin-5-amine 2,2,2-trifluoroacetate] | > 10 | > 10 | 167 | 39 | > 10
CN=[S@@]1(=O)C[C@@](C)(c2cc(-c3cc(-c4cnc(OC)cn4)no3)ccc2F)N=C(N)C1(C)C [Example 7, (1R,3R)-5-amino-3-(2-fluoro-5-(3-(5-methoxypyrazin-2-yl)isoxazol-5-yl)phenyl)-3,6,6-trimethyl-1-(methylimino)-3,6-dihydro-2H-1,4-thiazine 1-oxide 2,2,2-trifluoroacetate] | > 10 | > 10 | 182 | 37 | > 10
CN=[S@@]1(=O)C[C@@](C)(c2cc(-c3cc(-c4ncc(Cl)cn4)no3)ccc2F)N=C(N)C1(C)C [Example 6, (1R,3R)-5-amino-3-(5-(3-(5-chloropyrimidin-2-yl)isoxazol-5-yl)-2-fluorophenyl)-3,6,6-trimethyl-1-(methylimino)-3,6-dihydro-2H-1,4-thiazine 1-oxide 2,2,2-trifluoroacetate] | > 10 | > 10 | 79 | 38 | > 10
